From patent US11020360B2, “Methods, compounds, compositions and vehicles for delivering 3-amino-1-propanesulfonic acid” (Bellus Health, Inc., priority 2006, dated 2021)
Where a name gives a salt, the structure may show the parent alone.

Legend:
[1] = Stability in water, at pH 1.5 and PBS; format: physicochemical; conditions: 37° C., 60 min
Description: Stability of exemplary compounds was determined in water, aqueous acidic solution (pH 1.5, HCl) and PBS (phosphate buffered saline) solution using ESI-MS (electrospray ionization mass spectrometry) as the detecting instruments. In general a 2 μg/mL pro-drug solution containing 1 μg/ml IS (internal standard) was prepared and incubated for 60 min. For water stability the incubation was performed at room temperature and for stability in acidic solution and in buffer. The incubation temperature was 37° C. Samples were analyzed for prodrug content at time points 0 and 60 min. using MS. The % changes in peak area ratio after 60 minutes for each test compound tested are calculated using the average values from six replicate runs. The compounds tested included Compounds A1 to A19, Compounds B5 and B6 and Compounds C1 to C26. Except for C26 which was found unstable at pH 1.5 and in PBS, all other compounds were judged to be stable under all conditions tested with less than about 15%-20% concentration change after 60 minutes.

[2] = system: primary rat neuron culture; assay: In vitro metabolism of 3APS in primary rat neuron culture; format: in vitro ADME; conditions: primary neuron culture media
Description: The metabolism of 3APS was also studied in vitro in different types of cellular models. In some cases, the metabolism of 3APS was compared with that of γ-amino butyric acid (GABA).
The conversion of 3APS to 2-carboxyethanesulfonic acid was time-dependent and cell concentration-dependent. Incubation of 3APS (400 μM initial concentration) for six days in the cell culture media (containing 800,000 cells) produced with 48 μM of 2-carboxyethanesulfonic acid. Under the same experimental conditions, 5.4 μM succinic acid was detected starting from GABA (400 μM initial concentration).

Compound	Stability in PBS [1]	Stability in aqueous acidic solution (pH 1.5, HCl) [1]	effect on the conversion of 3APS to 2-carboxyethanesulfonic acid [2]
Cc1oc(=O)oc1COC(=O)NCCCS(=O)(=O)O [Compound C26, 3-({[(5-methyl-2-oxo-1,3-dioxol-4-yl)methoxy]carbonyl}amino)-1-propanesulfonic Acid Sodium Salt]	unstable	unstable	
O=C(CCNNC(=O)c1ccncc1)NCc1ccccc1 [Nialamide]			reduced the formation of 2-carboxyethanesulfonic acid (from 3APS) but to a lesser extent
NCC1(CC(=O)O)CCCCC1 [gabapentin]			no significant effect
C=CC(N)CCC(=O)O (centres unmarked) [vigabatrin]			significantly inhibited
